Measured values: ChEMBL document CHEMBL4825762, “Identification, Synthesis, and Characterization of a Major Circulating Human Metabolite of TRPV4 Antagonist GSK2798745” (ACS Med Chem Lett, 2021)
Activity calls are given as the source filed them. No cut-off for these calls is given here.

How the values were obtained:
[1] = biological target: Transient receptor potential cation channel subfamily V member 4 (Homo sapiens, UniProt Q9HBA0); assay: Antagonist activity at human TRPV4
[2] = Permeability of the compound; format: ADME; settings: not told; read-out: permeability
[3] = Chromatographic hydrophobicity index, log D of the compound; format: physicochemical
[4] = biological target: Transient receptor potential cation channel subfamily M member 8 (Homo sapiens) (UniProt Q7Z2W7); assay: Antagonist activity at human TRPM8 at <= 30 uM; settings: dose microM <=30
Sequence of Transient receptor potential cation channel subfamily M member 8 (Homo sapiens) (Q7Z2W7 whole entry, looked up): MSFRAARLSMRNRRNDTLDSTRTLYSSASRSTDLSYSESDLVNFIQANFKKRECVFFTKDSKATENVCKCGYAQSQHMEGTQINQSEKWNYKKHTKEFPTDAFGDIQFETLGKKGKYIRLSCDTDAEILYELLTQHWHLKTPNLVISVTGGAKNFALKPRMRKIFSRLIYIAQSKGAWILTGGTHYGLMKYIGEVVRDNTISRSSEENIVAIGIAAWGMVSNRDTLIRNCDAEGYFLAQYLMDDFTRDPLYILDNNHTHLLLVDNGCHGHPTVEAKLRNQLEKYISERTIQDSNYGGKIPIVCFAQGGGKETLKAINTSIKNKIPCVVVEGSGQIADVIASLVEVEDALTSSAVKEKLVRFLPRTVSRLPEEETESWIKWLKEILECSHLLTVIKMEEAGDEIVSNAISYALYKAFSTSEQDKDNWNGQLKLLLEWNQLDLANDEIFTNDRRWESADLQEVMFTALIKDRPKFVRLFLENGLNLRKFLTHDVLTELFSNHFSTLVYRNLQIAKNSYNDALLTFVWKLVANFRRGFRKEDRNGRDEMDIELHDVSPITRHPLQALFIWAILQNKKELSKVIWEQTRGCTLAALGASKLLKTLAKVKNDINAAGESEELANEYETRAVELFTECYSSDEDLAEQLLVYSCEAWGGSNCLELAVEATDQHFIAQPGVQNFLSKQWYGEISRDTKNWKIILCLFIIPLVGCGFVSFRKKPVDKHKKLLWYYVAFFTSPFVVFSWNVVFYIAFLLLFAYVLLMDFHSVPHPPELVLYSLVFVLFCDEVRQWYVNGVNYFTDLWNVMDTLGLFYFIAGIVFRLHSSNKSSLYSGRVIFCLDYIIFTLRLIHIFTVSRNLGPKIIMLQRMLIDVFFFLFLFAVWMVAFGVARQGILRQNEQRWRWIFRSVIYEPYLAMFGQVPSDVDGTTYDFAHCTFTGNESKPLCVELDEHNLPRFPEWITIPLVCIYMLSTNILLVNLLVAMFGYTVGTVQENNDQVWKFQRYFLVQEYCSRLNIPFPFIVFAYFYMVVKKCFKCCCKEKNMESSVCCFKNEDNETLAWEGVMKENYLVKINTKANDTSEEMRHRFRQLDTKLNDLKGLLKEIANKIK

[5] = biological target: T1, Short transient receptor potential channel 3 (Homo sapiens) (UniProt Q13507); assay: Antagonist activity at human TRPC3 at <= 30 uM; settings: dose microM <=30
T1 sequence (whole entry): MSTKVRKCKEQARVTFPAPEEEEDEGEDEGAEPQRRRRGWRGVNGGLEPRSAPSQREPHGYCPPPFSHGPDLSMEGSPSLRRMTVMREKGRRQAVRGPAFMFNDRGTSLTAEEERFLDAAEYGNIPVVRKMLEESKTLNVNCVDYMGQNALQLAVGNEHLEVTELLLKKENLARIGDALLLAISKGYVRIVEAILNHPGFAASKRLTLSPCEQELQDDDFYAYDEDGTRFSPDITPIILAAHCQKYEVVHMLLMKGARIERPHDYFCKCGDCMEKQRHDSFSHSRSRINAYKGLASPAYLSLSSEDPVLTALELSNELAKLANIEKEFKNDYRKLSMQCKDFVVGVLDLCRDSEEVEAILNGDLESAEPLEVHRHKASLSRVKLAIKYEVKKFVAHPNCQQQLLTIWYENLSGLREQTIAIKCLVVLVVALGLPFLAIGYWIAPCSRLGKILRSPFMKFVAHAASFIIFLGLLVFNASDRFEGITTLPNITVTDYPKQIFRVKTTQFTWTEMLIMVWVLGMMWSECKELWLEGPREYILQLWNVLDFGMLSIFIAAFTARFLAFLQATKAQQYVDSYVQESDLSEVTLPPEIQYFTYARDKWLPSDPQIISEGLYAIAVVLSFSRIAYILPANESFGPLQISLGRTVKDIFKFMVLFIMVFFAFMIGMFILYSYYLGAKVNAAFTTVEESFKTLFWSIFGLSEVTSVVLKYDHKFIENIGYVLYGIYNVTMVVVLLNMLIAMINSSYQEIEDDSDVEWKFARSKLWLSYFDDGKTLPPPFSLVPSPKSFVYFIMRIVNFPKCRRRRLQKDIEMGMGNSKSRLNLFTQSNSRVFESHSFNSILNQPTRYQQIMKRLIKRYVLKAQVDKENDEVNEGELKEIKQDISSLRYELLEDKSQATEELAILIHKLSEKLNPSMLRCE

[6] = biological target: T2, Short transient receptor potential channel 6 (Homo sapiens) (UniProt Q9Y210); assay: Antagonist activity at human TRPC6 at <= 30 uM; settings: dose microM <=30
T2 sequence (whole entry): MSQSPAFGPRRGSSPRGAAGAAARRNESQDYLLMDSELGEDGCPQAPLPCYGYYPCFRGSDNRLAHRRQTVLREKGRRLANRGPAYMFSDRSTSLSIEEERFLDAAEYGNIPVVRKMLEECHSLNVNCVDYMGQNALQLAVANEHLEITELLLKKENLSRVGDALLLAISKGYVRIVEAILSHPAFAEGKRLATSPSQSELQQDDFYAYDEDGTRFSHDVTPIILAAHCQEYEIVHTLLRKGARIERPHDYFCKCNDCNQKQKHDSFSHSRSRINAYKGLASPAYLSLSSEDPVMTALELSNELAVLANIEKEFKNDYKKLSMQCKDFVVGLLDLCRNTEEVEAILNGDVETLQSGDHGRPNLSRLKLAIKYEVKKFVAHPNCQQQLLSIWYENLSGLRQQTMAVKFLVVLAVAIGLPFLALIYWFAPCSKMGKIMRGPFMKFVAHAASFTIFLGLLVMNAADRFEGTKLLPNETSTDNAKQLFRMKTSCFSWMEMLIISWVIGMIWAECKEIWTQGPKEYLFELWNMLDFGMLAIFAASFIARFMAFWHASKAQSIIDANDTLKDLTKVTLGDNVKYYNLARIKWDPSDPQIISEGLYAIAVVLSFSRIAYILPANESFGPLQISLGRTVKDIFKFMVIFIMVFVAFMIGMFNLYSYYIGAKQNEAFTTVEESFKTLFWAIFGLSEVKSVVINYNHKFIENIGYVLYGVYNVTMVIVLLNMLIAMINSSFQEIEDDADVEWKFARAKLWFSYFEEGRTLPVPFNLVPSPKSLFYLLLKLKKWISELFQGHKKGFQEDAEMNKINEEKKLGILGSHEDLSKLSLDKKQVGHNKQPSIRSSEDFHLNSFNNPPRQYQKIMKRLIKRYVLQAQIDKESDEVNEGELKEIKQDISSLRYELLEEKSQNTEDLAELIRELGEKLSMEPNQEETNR

[7] = biological target: Voltage-gated inwardly rectifying potassium channel KCNH2 (Homo sapiens, UniProt Q12809); assay: Inhibition of human ERG at <= 10 uM
[8] = biological target: Transient receptor potential cation channel subfamily M member 4 (Homo sapiens) (UniProt Q8TD43); assay: Antagonist activity at human TRPM4 at <= 30 uM; settings: dose microM <=30
Sequence of Transient receptor potential cation channel subfamily M member 4 (Homo sapiens) (Q8TD43 whole entry): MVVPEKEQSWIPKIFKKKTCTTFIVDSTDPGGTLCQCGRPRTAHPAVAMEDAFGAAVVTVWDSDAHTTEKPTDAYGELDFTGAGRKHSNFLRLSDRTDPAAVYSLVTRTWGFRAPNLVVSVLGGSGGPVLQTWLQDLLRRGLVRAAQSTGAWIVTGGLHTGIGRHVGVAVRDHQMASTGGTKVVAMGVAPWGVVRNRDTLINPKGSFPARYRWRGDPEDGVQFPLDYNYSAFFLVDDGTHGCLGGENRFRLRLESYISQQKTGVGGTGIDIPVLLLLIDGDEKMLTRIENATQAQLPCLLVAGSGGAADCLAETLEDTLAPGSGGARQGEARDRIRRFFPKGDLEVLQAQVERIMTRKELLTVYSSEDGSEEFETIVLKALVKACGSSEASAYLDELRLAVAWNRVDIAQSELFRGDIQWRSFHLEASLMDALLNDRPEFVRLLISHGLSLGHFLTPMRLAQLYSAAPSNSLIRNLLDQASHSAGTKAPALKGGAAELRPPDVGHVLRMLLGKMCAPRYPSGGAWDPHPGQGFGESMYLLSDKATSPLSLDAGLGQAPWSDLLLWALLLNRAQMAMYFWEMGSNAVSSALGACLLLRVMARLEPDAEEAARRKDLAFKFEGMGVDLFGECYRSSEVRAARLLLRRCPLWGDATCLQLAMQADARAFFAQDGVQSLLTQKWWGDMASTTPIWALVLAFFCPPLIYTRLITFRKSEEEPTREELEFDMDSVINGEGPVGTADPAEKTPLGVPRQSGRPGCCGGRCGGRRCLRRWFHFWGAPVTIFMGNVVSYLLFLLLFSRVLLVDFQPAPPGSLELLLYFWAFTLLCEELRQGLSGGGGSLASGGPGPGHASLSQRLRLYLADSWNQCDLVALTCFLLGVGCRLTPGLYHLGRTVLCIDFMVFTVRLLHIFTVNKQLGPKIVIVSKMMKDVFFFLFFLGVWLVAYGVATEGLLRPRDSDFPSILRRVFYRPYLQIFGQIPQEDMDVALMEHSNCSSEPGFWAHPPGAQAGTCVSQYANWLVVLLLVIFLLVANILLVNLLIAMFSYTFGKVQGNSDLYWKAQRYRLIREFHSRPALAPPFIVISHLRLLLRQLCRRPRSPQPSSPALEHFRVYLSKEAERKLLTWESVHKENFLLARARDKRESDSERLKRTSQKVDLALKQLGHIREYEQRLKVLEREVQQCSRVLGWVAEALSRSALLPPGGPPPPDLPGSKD

[9] = biological target: T3, Short transient receptor potential channel 4 (Homo sapiens) (UniProt Q9UBN4); assay: Antagonist activity at human TRPC4 at <= 30 uM; settings: dose microM <=30
T3 sequence (whole entry): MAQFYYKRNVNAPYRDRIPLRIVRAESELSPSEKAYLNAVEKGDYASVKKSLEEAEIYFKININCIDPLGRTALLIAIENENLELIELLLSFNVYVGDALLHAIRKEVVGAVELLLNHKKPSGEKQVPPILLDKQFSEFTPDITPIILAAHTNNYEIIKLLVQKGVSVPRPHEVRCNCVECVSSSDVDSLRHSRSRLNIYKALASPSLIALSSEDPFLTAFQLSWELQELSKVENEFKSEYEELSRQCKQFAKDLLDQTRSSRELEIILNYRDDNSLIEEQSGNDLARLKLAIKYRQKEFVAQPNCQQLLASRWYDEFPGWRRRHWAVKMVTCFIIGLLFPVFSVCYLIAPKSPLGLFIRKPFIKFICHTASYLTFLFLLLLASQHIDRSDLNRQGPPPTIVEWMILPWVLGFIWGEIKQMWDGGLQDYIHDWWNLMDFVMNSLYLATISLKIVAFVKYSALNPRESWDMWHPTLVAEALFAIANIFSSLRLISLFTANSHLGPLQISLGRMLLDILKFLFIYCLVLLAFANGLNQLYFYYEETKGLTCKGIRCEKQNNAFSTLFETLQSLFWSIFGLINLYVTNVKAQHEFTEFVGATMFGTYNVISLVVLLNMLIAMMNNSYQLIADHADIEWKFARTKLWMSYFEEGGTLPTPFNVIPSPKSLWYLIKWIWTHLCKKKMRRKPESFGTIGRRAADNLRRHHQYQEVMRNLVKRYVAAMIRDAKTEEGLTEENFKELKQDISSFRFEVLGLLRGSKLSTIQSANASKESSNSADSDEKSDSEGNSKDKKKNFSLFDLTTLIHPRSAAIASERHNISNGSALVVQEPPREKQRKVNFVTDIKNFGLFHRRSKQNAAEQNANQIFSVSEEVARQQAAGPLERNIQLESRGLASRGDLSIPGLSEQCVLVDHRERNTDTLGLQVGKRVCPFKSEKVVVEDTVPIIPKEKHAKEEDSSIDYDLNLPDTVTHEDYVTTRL

Cytochrome P450 3A4 = Cytochrome P450 3A4 (Homo sapiens, UniProt P08684); assay: Inhibition of CYP3A4 (unknown origin) at <= 10 uM; format: ADME
Sequence of Cytochrome P450 3A4 (P08684 whole entry): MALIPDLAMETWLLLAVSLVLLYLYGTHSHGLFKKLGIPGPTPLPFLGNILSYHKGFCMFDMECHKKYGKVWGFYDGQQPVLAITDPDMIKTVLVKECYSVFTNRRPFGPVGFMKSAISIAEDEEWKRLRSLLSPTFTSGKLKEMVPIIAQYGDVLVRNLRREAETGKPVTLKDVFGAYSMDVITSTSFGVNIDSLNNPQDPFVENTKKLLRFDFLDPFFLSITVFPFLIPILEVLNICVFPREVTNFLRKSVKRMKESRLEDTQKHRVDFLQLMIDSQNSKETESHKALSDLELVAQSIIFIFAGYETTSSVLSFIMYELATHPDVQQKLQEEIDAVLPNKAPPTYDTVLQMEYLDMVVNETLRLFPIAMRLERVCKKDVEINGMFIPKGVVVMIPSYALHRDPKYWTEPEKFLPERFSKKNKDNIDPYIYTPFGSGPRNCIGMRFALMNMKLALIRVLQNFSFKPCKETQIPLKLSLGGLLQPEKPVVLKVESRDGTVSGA

[10] = biological target: T4, Short transient receptor potential channel 5 (Homo sapiens) (UniProt Q9UL62); assay: Antagonist activity at human TRPC5 at <= 30 uM; settings: dose microM <=30
T4 sequence (whole entry): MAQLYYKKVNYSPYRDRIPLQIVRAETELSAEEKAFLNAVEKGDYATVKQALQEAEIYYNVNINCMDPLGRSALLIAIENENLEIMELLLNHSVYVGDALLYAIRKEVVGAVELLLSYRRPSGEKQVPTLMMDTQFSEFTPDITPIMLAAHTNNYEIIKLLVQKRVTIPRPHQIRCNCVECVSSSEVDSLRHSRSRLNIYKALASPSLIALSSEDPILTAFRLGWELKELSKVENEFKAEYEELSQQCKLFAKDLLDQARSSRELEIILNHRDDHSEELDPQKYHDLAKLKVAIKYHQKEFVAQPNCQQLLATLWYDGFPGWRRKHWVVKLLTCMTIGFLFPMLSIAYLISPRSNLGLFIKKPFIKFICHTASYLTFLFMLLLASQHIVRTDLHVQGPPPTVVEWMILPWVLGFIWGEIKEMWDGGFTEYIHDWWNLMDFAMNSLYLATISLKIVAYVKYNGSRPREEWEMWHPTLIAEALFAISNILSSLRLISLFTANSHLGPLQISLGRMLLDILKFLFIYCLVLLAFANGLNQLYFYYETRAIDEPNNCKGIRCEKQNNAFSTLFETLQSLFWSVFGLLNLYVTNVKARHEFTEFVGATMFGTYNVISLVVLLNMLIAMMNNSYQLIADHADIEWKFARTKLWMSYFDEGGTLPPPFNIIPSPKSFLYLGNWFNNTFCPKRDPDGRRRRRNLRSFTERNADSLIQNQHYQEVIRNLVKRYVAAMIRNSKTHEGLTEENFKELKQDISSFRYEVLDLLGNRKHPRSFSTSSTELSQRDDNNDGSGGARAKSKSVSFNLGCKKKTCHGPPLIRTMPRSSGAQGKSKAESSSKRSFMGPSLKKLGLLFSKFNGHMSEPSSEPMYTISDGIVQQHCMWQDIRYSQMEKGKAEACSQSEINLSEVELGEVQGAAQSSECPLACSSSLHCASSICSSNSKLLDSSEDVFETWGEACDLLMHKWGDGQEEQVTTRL

[11] = biological target: Transient receptor potential cation channel subfamily M member 2 (Homo sapiens) (UniProt O94759); assay: Antagonist activity at human TRPM2 at <= 30 uM; settings: dose microM <=30
[12] = biological target: Transient receptor potential cation channel subfamily A member 1 (Homo sapiens) (UniProt O75762); assay: Antagonist activity at human TRPA1 at <= 30 uM; settings: dose microM <=30
Sequence of Transient receptor potential cation channel subfamily A member 1 (Homo sapiens) (O75762 whole entry): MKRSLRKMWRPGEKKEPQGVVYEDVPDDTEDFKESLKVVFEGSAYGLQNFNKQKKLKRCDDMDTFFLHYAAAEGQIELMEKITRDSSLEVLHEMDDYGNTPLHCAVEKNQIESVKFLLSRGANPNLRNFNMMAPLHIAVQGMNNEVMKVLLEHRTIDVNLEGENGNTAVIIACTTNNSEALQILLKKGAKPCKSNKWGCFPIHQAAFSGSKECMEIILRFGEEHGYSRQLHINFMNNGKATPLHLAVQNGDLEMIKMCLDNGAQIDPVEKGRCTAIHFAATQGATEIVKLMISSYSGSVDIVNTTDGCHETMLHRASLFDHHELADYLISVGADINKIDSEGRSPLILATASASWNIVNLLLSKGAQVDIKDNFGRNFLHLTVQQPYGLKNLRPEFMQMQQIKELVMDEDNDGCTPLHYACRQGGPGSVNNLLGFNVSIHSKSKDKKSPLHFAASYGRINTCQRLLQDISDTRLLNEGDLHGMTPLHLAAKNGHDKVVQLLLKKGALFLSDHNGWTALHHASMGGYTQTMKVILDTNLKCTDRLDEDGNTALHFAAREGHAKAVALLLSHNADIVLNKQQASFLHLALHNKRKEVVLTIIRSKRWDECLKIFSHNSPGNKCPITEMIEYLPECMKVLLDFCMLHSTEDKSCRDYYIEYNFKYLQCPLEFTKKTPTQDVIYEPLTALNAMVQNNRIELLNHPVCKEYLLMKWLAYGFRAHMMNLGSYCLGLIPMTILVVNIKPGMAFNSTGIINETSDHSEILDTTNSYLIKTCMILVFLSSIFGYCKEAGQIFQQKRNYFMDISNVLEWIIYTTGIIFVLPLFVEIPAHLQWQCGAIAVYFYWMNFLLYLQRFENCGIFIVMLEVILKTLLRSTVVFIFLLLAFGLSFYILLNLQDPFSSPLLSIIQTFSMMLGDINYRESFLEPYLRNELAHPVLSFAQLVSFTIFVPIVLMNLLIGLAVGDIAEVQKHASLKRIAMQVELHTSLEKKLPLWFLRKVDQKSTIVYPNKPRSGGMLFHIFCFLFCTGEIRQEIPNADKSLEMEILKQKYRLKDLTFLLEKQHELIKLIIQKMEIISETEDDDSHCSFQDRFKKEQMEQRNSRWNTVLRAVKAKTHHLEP

[13] = biological target: Transient receptor potential cation channel subfamily V member 1 (Homo sapiens) (UniProt Q8NER1); assay: Antagonist activity at human TRPV1 at <= 30 uM; settings: dose microM <=30

Sequence of Transient receptor potential cation channel subfamily V member 4 (Q9HBA0 whole entry): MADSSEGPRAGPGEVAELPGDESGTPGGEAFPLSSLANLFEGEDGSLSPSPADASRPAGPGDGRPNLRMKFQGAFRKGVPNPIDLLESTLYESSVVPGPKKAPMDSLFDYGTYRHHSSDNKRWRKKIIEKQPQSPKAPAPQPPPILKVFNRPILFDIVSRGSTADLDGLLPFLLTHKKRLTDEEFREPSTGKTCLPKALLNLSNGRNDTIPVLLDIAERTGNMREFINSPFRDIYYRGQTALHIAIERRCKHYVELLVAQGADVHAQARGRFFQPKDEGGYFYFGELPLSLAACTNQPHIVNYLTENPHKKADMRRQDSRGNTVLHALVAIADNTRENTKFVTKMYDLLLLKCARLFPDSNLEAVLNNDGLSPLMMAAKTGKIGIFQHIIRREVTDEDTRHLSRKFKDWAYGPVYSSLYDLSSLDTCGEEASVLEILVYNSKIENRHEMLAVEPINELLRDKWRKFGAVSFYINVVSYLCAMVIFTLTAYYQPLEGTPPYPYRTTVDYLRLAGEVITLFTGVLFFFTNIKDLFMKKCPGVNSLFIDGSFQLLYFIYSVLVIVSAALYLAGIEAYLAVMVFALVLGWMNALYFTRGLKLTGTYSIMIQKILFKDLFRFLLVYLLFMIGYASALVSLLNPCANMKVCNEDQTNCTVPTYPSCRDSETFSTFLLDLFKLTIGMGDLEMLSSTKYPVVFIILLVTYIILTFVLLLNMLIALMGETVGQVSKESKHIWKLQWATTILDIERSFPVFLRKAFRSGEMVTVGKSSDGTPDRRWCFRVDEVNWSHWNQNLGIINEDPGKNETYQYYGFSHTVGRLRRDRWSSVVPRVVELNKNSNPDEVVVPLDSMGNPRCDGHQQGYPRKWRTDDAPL

IC50 [1] | Papp [2] | chromatographic logD [3] | Activity [4] | Activity [5] | Activity [6] | Activity [9] | inhibition (INH) (Cytochrome P450 3A4) | Activity [10] | Activity [11] | Activity [12] | Activity [13] | SMILES | inhibition (INH) [7] | Activity [8]
2 nM | 38.5 ×10⁻⁶ cm/s | 4 | – | – | – | – | – | – | – | – | – | CC(C)(O)c1cnc(N2C[C@@]3(CCC[C@](C)(Cn4cnc5ccc(C#N)cc54)C3)OC2=O)cn1 [GSK2798745] | – | –
56 nM | 3.2 ×10⁻⁶ cm/s | 2.6 | inactive | inactive | inactive | inactive | Not Active | inactive | inactive | inactive | inactive | CC(C)(O)c1cnc(N2C[C@@]3(CC[C@@H](O)[C@](C)(Cn4cnc5ccc(C#N)cc54)C3)OC2=O)cn1 | Not Active | inactive
